Data on five molecules can be found in publication PMC8747639, “Novel Angiotensin-Converting Enzyme Inhibitory Peptides Identified from Walnut Glutelin-1 Hydrolysates: Molecular Interaction, Stability, and Antihypertensive Effects” (Nutrients, 2021).

The target of data set [1] is T1, angiotensin-converting enzyme (ACE) from rabbit lung (rabbit) (UniProt P12822).
T1 sequence: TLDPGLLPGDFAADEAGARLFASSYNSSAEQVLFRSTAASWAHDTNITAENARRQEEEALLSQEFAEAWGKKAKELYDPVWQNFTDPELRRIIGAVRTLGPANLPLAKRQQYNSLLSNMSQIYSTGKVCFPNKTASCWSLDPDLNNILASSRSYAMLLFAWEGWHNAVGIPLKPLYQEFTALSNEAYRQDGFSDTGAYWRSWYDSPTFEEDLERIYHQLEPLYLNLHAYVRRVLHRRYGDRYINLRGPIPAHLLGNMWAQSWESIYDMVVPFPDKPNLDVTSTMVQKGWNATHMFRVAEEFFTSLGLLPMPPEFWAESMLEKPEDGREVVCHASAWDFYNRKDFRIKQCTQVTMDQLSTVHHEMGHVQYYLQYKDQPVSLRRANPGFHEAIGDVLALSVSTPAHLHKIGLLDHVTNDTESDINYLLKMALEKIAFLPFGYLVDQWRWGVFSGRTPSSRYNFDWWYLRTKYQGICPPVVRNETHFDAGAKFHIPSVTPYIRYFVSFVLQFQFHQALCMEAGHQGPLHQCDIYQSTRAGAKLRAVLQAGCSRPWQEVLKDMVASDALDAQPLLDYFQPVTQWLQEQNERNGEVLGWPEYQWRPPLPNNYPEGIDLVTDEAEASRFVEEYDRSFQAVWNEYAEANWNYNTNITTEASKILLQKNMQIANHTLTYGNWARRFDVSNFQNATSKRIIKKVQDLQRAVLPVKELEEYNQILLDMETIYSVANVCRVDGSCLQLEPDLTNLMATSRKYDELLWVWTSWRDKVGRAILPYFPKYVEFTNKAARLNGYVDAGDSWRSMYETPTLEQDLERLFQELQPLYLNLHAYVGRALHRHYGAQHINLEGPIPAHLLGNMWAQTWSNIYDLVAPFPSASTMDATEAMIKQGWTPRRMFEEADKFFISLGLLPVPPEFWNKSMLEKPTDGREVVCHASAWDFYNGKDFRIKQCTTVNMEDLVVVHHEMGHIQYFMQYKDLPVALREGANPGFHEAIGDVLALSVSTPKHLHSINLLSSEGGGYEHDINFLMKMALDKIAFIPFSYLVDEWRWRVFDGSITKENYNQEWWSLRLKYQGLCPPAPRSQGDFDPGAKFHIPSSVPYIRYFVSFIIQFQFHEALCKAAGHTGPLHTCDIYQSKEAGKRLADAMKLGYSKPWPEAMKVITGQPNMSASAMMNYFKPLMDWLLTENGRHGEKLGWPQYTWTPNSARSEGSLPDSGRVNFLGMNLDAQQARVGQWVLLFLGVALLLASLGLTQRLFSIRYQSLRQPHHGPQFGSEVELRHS

The subject of data set [2] is serum ET-1, NO, ACE, Ang II, AGT, ALD. Kind of data set: Serum ET-1, NO, ACE, Ang II, AGT and ALD in SHR (ELISA / NO kit). Format: in vivo, rat. To be noted: 28 days oral administration; for serum ACE level of the SHR control group compared with the treated group / serum AGT level of the SHR control group compared with the treated group / serum ALD level of the SHR control group compared with the treated group / serum AngII level of the SHR control group compared with the treated group: p < 0.05. The text has this: (§1) The Grain, Oil and Protein Engineering Laboratory of Shaanxi Normal University (Xi’an, China) provided the defatted walnut meal. ACE (from rabbit lung) and hippuryl-histidyl-leucine (HHL) were purchased from Sigma Co., St. Louis, MO, USA. Pepsin (3 × 10^3 U/g) was obtained from Solarbio Science & Technology, Co., Ltd. (Beijing, China). High-performance liquid chromatography grade acetonitrile and trifluoroacetic acid were purchased from Fischer Scientific Co. (Waltham, MA, USA). The enzyme-linked immunosorbent assay kit for the detection of ACE, angiotensinogen (AGT), aldosterone (ALD), and Endothelin-1(ET-1) was purchased from Jiangsu Jingmei Biotechnology Co., Ltd. (YanCheng, China). The enzyme-linked immunosorbent assay kit for the detection of Ang II was obtained from Shanghai Kexing Biotechnology Co., Ltd., (Shanghai, China). and the nitric oxide (NO) detection kit was a product of Nanjing Jiancheng Institute of Biological Engineering (Nanjing, China), and other chemical reagents used in the experiment were of analytical grade.
The upper serum samples were obtained by centrifugation at 3000× g at 4 °C for 10 min after the blood was taken from the abdominal aorta of all rats. The samples were stored at −20 °C, and the serum expression was detected using the ELISA kit (double antibody sandwich enzyme-linked immunosorbent assay).
Background: In an ELISA, binding on a coated surface is turned into a signal by an enzyme label.

In data set [3] the test system is spontaneously hypertensive rats (SHRs). Kind of data set: BP measurement during four weeks of oral administration in SHR (tail-cuff). Type of data set: in vivo, rat. Conditions: daily oral; for SBP compared with the SHRs group after one week of oral administration: peptides 5 and 15 mg/kg, p < 0.01. The procedure: (§2) Thirty 10-week-old male spontaneously hypertensive rats (SHRs) and five normal male rats of the same age were used for the experiment. The rats were placed at 25 °C ± 1 °C, relative humidity of 45–55% and a light/dark cycle for 12 h. SHRs were randomly divided into 6 groups after one week of adaptation, while rats in the normal group (NG) were used as controls. The administration was continued for 28 days.
(§3) Rats in the normal and SHR groups were given 1.0 mL of 0.9% saline per day, while the positive control group was given captopril (10 mg/kg body weight) per day. The ACE inhibitory peptides treatment groups’ low and high doses were fed orally with 5 and 15 mg/kg (based on their body weight) by dissolving the peptides in 1.0 mL of 0.9% normal saline. The rats’ BP was measured by the tail-cuff method. The systolic blood pressure (SBP), diastolic blood pressure (DBP), and heart rate of all rats were measured after a single oral administration (0–8 h) and weekly (0–4 weeks). All measurements were repeated at least three times so the average value could be calculated.

For data set [4] the test system is unchanged. Kind of data set: BP measurement after single oral administration in SHR (tail-cuff). To be noted: single intragastric administration, 0-8 h. Format: in vivo, rat. On the procedure: as §2, §3
In data set [5] the test system is pepsin and trypsin. Kind of data set: GI digestion stability of the synthesized peptides (pepsin, trypsin), read out as ACE inhibitory activity. Type of data set: in vitro ADME. Conditions: pepsin 1 mg/mL pH 2.0 37 °C 3 h, or trypsin 1.0 mg/mL pH 8.0 37 °C 4 h. The procedure:
We conducted a GI digestion stability analysis of the synthesized peptides according to the method proposed by Khueychai et al. (2018) with slight modifications. Briefly, the peptide solution was incubated with 1 mg/mL of pepsin solution (0.1 M HCl, pH 2.0) at 37 °C for 3 h. Subsequently, the pH value of the mixed solution was adjusted to 8.0 with 1.0 M NaOH, and 1.0 mg/mL of trypsin added and incubated at 37 °C for 4 h. Finally, the ACE inhibitory activity of the reaction solution could be determined after boiling for 10 min, cooling to room temperature, and centrifuging for 15 min at 10,000× g.

Data set [6] deals with T2, ACE (from rabbit lung) (Oryctolagus cuniculus, UniProt P12822).
T2 construct: ACE (from rabbit lung) and hippuryl-histidyl-leucine (HHL) were purchased from Sigma Co; purchased Sigma Co., St. Louis, MO, USA; host or cells: rabbit lung (tissue-derived)
T2 sequence (P12822 34-1310): T1 sequence
Kind of data set: ACE inhibitory activity (HHL substrate, absorbance). Format: biochemical. Conditions: for IC50: calculated by linear regression of the curve, read-out: IC50 on angiotensin converting enzyme (ACE).
Source text: as §1
Following a previous method reported by Zheng et al. (2017), we could determine the ACE inhibitory activity of glutelin-1 hydrolysate, separated fractions, active peptides, and all the other samples with 1.0 mg/mL Captopril as a positive control. The IC50 value (the concentrationof the inhibitory peptide (μM) had to inhibit 50% of the ACE activity) was calculated by linear regression of the curve.
The following formula was used to calculate the ACE inhibition rate (%): ACE inhibition rate(%)=(1-As/Ac)×100 where Ac represents ACE solution’s absorbance without an inhibitor and As represents the mixture containing samples.

Data set [7] can be described thus: Temperature, pH, metal ion, sugar and salt treatment stability of the synthesized peptides, read out as ACE inhibition rate. Format: physicochemical. Conditions: 1.0 mg/mL peptide; for stability of ACE inhibitory activity with metal ions K+, Ca2+ and Mg2+: 100 μg/mL KCl, CaCl2, MgSO4, 37 °C for 2 h; for stability of ACE inhibitory activity under high-concentration salt conditions / stability of ACE inhibitory activity under low-concentration salt conditions: NaCl solutions 2-12%; for stability of ACE inhibitory activity under high-concentration salt conditions / stability of ACE inhibitory activity under low-concentration salt conditions / stability of ACE inhibitory activity at low glucose concentration: 37 °C for 30 min; for stability of ACE inhibitory activity at low glucose concentration: glucose solutions 2-12%, low concentrations. The procedure:
The effect of temperature, pH, metal ion, sugar, and salt treatments on the stabilities of two synthesized peptides, were determined by incubating 1.0 mg/mL of VERGRRITSV and FVIEPNITPA at 20 °C, 40 °C, 60 °C, 80 °C, and 100 °C for 2 h; 37 °C for 2 h at pH 2, 4, 6, 8, and 10; with 100 μg/mL of KCl, CaCl2, ZnSO4, MgSO4, and FeSO4 solution at 37 °C for 2 h; with glucose solutions of 2%, 4%, 8%, and 12% at 37 °C for 30 min; with NaCl solutions of 2%, 4%, 8%, and 12% at 37 °C for 30 min, respectively. The ACE inhibition rate was measured immediately after incubation.

The mark [8] stands for this setting: captopril 10 mg/kg, peptides low dose 5 mg/kg, decline reached a maximum in the second week.

No end group written: not given here.

In the case of “Phe-Val-Ile-Glu-Pro-Asn-Ile-Thr-Pro-Ala (…) (peptide)”, the IC50 of ACE inhibitory activity (enzyme activity assay, ACE from rabbit lung, substrate HHL) in data set [1] turned out to be 6.36 µM.

Consider `C[C@H](CS)C(=O)N1CCC[C@H]1C(=O)O` [captopril, reference compound], for which, in data set [2] (ELISA), the “serum ACE level of the SHR control group compared with the treated group” value is “significantly higher”, the “serum AGT level of the SHR control group compared with the treated group” value is “significantly higher”, the “serum ALD level of the SHR control group compared with the treated group” value is “significantly higher” and the “serum AngII level of the SHR control group compared with the treated group” value is on record as “significantly higher”. In addition, the “SBP compared with the SHRs group after one week of oral administration” value in data set [3] (captopril 10 mg/kg) is listed as “significantly lower”. For the same molecule, in data set [3] (setting [8]), the “DBP course during continuous administration” value is “began to decrease after one week of continuous administration”. In addition, in data set [4] (captopril 10 mg/kg), the “maximal reduction in SBP” value is 29.5 mmHg.

As to “FVIEPNITPA [FVIEPNITPA, Phe-Val-Ile-Glu-Pro-Asn-Ile-Thr-Pro-Ala]”, in data set [2] (ELISA, SHR control significantly higher than the other groups (p < 0.01)), the “serum ET-1 levels” value is “low ET-1 levels”. Also, in data set [2] (ELISA), the “serum ACE level of the SHR control group compared with the treated group” value was “significantly higher”, the “serum AGT level of the SHR control group compared with the treated group” value is “significantly higher”, the “serum ALD level of the SHR control group compared with the treated group” value is given as “significantly higher” and the “serum AngII level of the SHR control group compared with the treated group” value was “significantly higher”. Moreover, in data set [2] (NO detection kit, SHR control significantly lower than treated groups (p < 0.05)), the “serum NO content” value is given as “equivalent to that of the captopril group”. Also, the “ACE inhibitory activity under pepsin or trypsin digestion” value in data set [5] was “could still maintain high ACE inhibitory activity”. Also, the concentration for half-maximal inhibition (IC50) in data set [6] was 6.36 µM. In addition, the “ACE inhibitory activity compared among fractions or with the glutelin-1 hydrolysate (in words)” value in data set [6] (fractions from Sephadex G-15 (1.0 mg/mL) or RP-HPLC, control glutelin-1 hydrolysate before separation) is given as “highest ACE inhibitory activity”. For the same molecule, the “SBP compared with the SHRs group after one week of oral administration” value in data set [3] (captopril 10 mg/kg) is listed as “significantly lower”. For the same molecule, the “DBP course during continuous administration” value in data set [3] (setting [8]) is “began to decrease after one week of continuous administration”. Also, the “DBP course during continuous administration” value in data set [3] (high dose 15 mg/kg) is recorded as “began to decrease in the second week after administration”. Besides, the “maximal reduction in SBP” value in data set [4] (high dose 15 mg/kg) is given as 30.4 mmHg. Besides, in data set [4] (low dose 5 mg/kg), the “maximal reduction in SBP” value turned out to be 23.0 mmHg. Moreover, in data set [7] (read-out ACE inhibition rate), the “stability of ACE inhibitory activity with metal ions K+, Ca2+ and Mg2+” value is given as “showed stability”; the “stability of ACE inhibitory activity under high-concentration salt conditions” value is listed as “less stable”; the “stability of ACE inhibitory activity under low-concentration salt conditions” value is “good stability”; the “stability of ACE inhibitory activity at low glucose concentration” value is given as “showed stability”. In addition, in data set [7] (20 °C-60 °C for 2 h, read-out ACE inhibition rate), the “ACE inhibitory activity after temperature treatment” value is reported as “did not change much”. Also, the “effect of change of pH value on ACE inhibitory activity” value in data set [7] (37 °C for 2 h at pH 2, 4, 6, 8 and 10, read-out ACE inhibition rate) is listed as “no significant effect”. Besides, in data set [7] (80 °C for 2 h), the “ACE inhibition rate after temperature treatment” value is given as “above 80%”. Moreover, the “ACE inhibition rate after temperature treatment” value in data set [7] (100 °C for 2 h) is listed as “about 70%”.

Regarding “VERGRRITSV [VERGRRITSV, Val-Glu-Arg-Gly-Arg-Arg-Ile-Thr-Ser-Val]”, in data set [5], the “ACE inhibitory activity under pepsin or trypsin digestion” value is on record as “could still maintain high ACE inhibitory activity”. In addition, in data set [6], the IC50 was 6.82 µM. For the same molecule, in data set [7] (read-out ACE inhibition rate), the “stability of ACE inhibitory activity with metal ions K+, Ca2+ and Mg2+” value was “showed stability”; the “stability of ACE inhibitory activity under high-concentration salt conditions” value was “less stable”; the “stability of ACE inhibitory activity under low-concentration salt conditions” value is “good stability”; the “stability of ACE inhibitory activity at low glucose concentration” value was “showed stability”.

B1: Val-Glu-Arg-Gly-Arg-Arg-Ile-Thr-Ser-Val (…) (peptide)
peptide: VERGRRITSV
Molecule B1 returned an IC50 of ACE inhibitory activity (enzyme activity assay, ACE from rabbit lung, substrate HHL) in data set [1] of 6.82 µM.

Broadly, the IC50 is the point on the concentration scale where inhibition reaches its midpoint.
